We go through 58 compounds from US8735417B2, “Aminopyrimidines as Syk inhibitors” (Merck Sharp & Dohme Corp., priority 2009, dated 2014).

A word on the IC50: it is the concentration that gives 50% inhibition.

Where only a bound is given, the exact number is not on record here.

This experiment addresses T1, recombinant human GST-SYK (Homo sapiens, UniProt P43405).
T1 construct: purchased Carna Biosciences 08-176
Description: Homogeneous Time-Resolved Fluorescence (HTRF) assay for the recombinant human SYK enzyme. Format: biochemical. The note with it: recombinant human GST-SYK 5 pM, ATP 25 μM, 10-dose titration; read-out: rhSYK Activity (IC50). How it is done:
Homogeneous Time-Resolved Fluorescence (HTRF) Assay for the Recombinant Human SYK Enzyme:
A recombinant GST-hSYK fusion protein was used to measure potency of compounds to inhibit human SYK activity. The recombinant human GST-SYK (Carna Biosciences #08-176) (5 pM final concentration) was incubated with various concentrations of the inhibitor diluted in DMSO (0.1% final concentration) for 10 minutes at room temperature in 15 mM Tris-HCl (pH 7.5), 0.01% tween 20, 2 mM DTT in 384 well plate format. To initiate the reaction the biotinylated substrate peptide (250 nM final concentration) that contains the phosphorylation site for SYK was added with magnesium (5 mM final concentration) and ATP (25 μM final concentration). Final volume of the reaction was 10 μL. Phosphorylation of the peptide was allowed to proceed for 45′ at room temperature. To quench the reaction and detect the phosphorylated product, 2 nM of a Europium-atiti-phosphotyrosine antibody (Perkin Elmer #AD0161) and 70 nM SA-APC (Perkin-Elmer #CR130-100) were added together in 15 mM Tris pH 7.5, 40 mM EDTA, 0.01% tween 20. Final volume of the quenching solution was 10 μL. The resulting HTRF signal was measured after 30 minutes on a EnVision (Perkin-Elmer) reader using a time-resolved fluorescence protocol.
On the technique in general: In TR-FRET formats the signal depends on donor and acceptor labels being close together.
`FC(F)(F)c1ccnc(Nc2cccc(-c3cnc(N4CCCC4c4ccccc4)s3)c2)n1` (stereo not shown) [Example 161]: the half-inhibitory concentration (IC50) was in the range of 0.1 to 1 µM.

As for `CC(C)(CO)Nc1ncc(-c2cccc(Nc3nccc(C(F)(F)F)n3)c2)s1` [Example 23], the IC50 is at most 0.1 µM.

Take `OC(CNc1ncc(-c2cccc(Nc3nccc(C(F)(F)F)n3)c2)s1)C(F)F` (stereo not shown) [Example 13]: the half-inhibitory concentration (IC50) is at most 0.1 µM.

On to `O=C(CO)Nc1ncc(-c2cccc(Nc3nccc(C(F)(F)F)n3)c2)s1` [Example 183, 2-hydroxy-N-[5-(3-{[4-(trifluoromethyl)pyrimidin-2-yl]amino}phenyl)-1,3-thiazol-2-yl]acetamide], for which the IC50 was at most 0.1 µM.

In the case of `NC(=O)C1CCN(c2ncc(-c3cccc(Nc4nccc(C(F)(F)F)n4)c3)s2)CC1` [Example 191, 1-[5-(3-{[4-(trifluoromethyl)pyrimidin-2-yl]amino}phenyl)-1,3-thiazol-2-yl]piperidine-4-carboxamide], the IC50 was at most 0.1 µM.

On to `Nc1ncc(-c2cccc(Nc3nccc(C(F)(F)F)n3)c2)s1` [Example 181, N-[3-(2-amino-1,3-thiazol-5-yl)phenyl]-4-(trifluoromethyl)pyrimidin-2-amine], for which the half-maximal inhibitory concentration (IC50) was at most 0.1 µM.

`OCCN(CCO)c1ncc(-c2cc(Nc3nccc(C(F)(F)F)n3)cc(N3CCOCC3)c2)s1` [Example 194, 2,2′-({5-[3-(morphpholin-4-yl)-5-{[4-(trifluoromethyl)pyrimidin-2-yl]amino}phenyl]-1,3-thiazol-2-yl}imino)diethanol]: the concentration for half-maximal inhibition (IC50) was at most 0.1 µM.

As to `O=C1CCCN1CCNc1ncc(-c2cccc(Nc3nccc(C(F)(F)F)n3)c2)s1` [Example 51], the IC50 is at most 0.1 µM.

Turning to `FC(F)(F)c1ccnc(Nc2cccc(-c3cnc(NCc4c[nH]nn4)s3)c2)n1` [Example 41], the concentration for half-maximal inhibition (IC50) is at most 0.1 µM.

As to `CCCCN(CCO)c1ncc(-c2cccc(Nc3nccc(C(F)(F)F)n3)c2)s1` [Example 6], the IC50 is at most 0.1 µM.

Take `OC1(C(F)(F)F)CN(c2ncc(-c3cccc(Nc4nccc(C(F)(F)F)n4)c3)s2)C1` [Example 155]: the half-maximal inhibitory concentration (IC50) lay in the range of 0.1 to 1 µM.

Consider `Cc1cc(Nc2nccc(C(F)(F)F)n2)cc(-c2cnc(NCC(O)C(F)F)s2)c1` (stereo not shown) [Example 95], for which the concentration for half-maximal inhibition (IC50) was at most 0.1 µM.

As for `Cc1cc(Nc2nccc(C(F)(F)F)n2)cc(-c2cnc(N3CCC(OCC(=O)NC(C)(C)C)CC3)s2)c1` [Example 145], the IC50 was 1 to 10 µM.

Regarding `COC(=O)c1ccc(N(C)c2ncc(-c3cccc(Nc4nccc(C(F)(F)F)n4)c3)s2)cc1` [Example 30], the concentration for half-maximal inhibition (IC50) lay in the range of 0.1 to 1 µM.

On to `Cc1cc(CNc2ncc(-c3cccc(Nc4nccc(C(F)(F)F)n4)c3)s2)nn1C` [Example 67], for which the concentration for half-maximal inhibition (IC50) was at most 0.1 µM.

On to `OCC(CO)Nc1ncc(-c2cccc(Nc3nccc(C(F)(F)F)n3)c2)s1` [Example 11], for which the IC50 is at most 0.1 µM.

Consider `Cc1cc(Nc2nccc(C(F)(F)F)n2)cc(-c2cnc(NCCO)s2)c1` [Example 28], for which the IC50 was at most 0.1 µM.

For the compound `OCCN(CCO)c1ncc(-c2cccc(Nc3nccc(C(F)(F)F)n3)c2)s1` [Example 3], the half-maximal inhibitory concentration (IC50) was at most 0.1 µM.

`Cc1cc(Nc2nccc(C(F)(F)F)n2)cc(-c2cnc(NCc3cn4ccccc4n3)s2)c1` [Example 89]: the 50% inhibitory concentration (IC50) was 0.1 to 1 µM.

As to `Cc1ccsc1CNc1ncc(-c2cccc(Nc3nccc(C(F)(F)F)n3)c2)s1` [Example 75], the IC50 was in the range of 1 to 10 µM.

As for `Cc1cc(Nc2nccc(C3CCC3)n2)cc(-c2cnc(N3CCCNC(=O)C3)s2)c1` [Example 195], the IC50 is at most 0.1 µM.

Turning to `Cc1cc(Nc2nccc(C3CCCCC3)n2)cc(-c2cnc(N3CCCNC(=O)C3)s2)c1` [Example 196, 4-(5-{3-[(4-cyclohexylpyrimidin-2-yl)amino]-5-methylphenyl}-1,3-thiazol-2-yl)-1,4-diazepan-2-one], the IC50 was at most 0.1 µM.

In the case of `O=C(O)c1cccc(N2CCN(c3ncc(-c4cccc(Nc5nccc(C(F)(F)F)n5)c4)s3)CC2)c1` [Example 125], the IC50 was at most 0.1 µM.

With `Cc1cc(Nc2nccc(C(F)(F)F)n2)cc(-c2cnc(N3CCN(C(=O)c4ccc5cc[nH]c5c4)CC3)s2)c1` [Example 128], the IC50 is at most 0.1 µM.

In the case of `Cc1cc(Nc2nccc(C(F)(F)F)n2)cc(-c2cnc(NCCC3(O)CCN(C)CC3)s2)c1` [Example 116], the IC50 was at most 0.1 µM.

As to `Cc1cc(Nc2nccc(C3CCCC3)n2)cc(-c2cnc(N3CCCNC(=O)C3)s2)c1` [Example 197, 4-(5-{3-[(4-cyclopentylpyrimidin-2-yl)amino]-5-methylphenyl}-1,3-thiazol-2-yl)-1,4-diazepan-2-one], the IC50 is at most 0.1 µM.

Consider `FC(F)(F)c1ccnc(Nc2cccc(-c3cnc(NC4CCCC4)s3)c2)n1` [Example 43], for which the IC50 lay in the range of 0.1 to 1 µM.

For `Cc1cc(Nc2nccc(C(F)(F)F)n2)cc(-c2cnc(N3CCC(CC(N)=O)CC3)s2)c1` [Example 148], the 50% inhibitory concentration (IC50) is at most 0.1 µM.

As for `Cc1cc(Nc2nccc(C(F)(F)F)n2)cc(-c2cnc(NCc3cncn3C)s2)c1` [Example 87], the 50% inhibitory concentration (IC50) was at most 0.1 µM.

`NC(=O)C1CCN(c2nc(-c3cccc(Nc4nccc(C(F)(F)F)n4)c3)cs2)CC1` [Example 230, 1-[4-(3-{[4-(trifluoromethyl)pyrimidin-2-yl]amino}phenyl)-1,3-thiazol-2-yl]piperidine-4-carboxamide]: the half-inhibitory concentration (IC50) was 0.1 to 1 µM.

On to `Cc1cc(Nc2ncc(F)cn2)cc(-c2cnc(N3CCCNC(=O)C3)s2)c1` [Example 201], for which the concentration for half-maximal inhibition (IC50) was at most 0.1 µM.

On to `CN(c1ncc(-c2cccc(Nc3nccc(C(F)(F)F)n3)c2)s1)C1CCOC1` (stereo not shown) [Example 36], for which the IC50 was at most 0.1 µM.

As for `FC1CCN(c2ncc(-c3cccc(Nc4nccc(C(F)(F)F)n4)c3)s2)CC1` [Example 140], the IC50 was 0.1 to 1 µM.

On to `Cc1cc(Nc2nccc(C(F)(F)F)n2)cc(-c2cnc(N(C)Cc3nc4ccccc4o3)s2)c1` [Example 102], for which the half-inhibitory concentration (IC50) lay in the range of 0.1 to 1 µM.

In the case of `Cc1cc(Nc2nccc(C(F)(F)F)n2)cc(-c2cnc(NCCc3ncn[nH]3)s2)c1` [Example 106], the IC50 was at most 0.1 µM.

On to `O[C@H]1CC[C@H](Nc2ncc(-c3cccc(Nc4nccc(C(F)(F)F)n4)c3)s2)CC1` [Example 19], for which the IC50 was at most 0.1 µM.

Take `OC1(CCNc2ncc(-c3cccc(Nc4nccc(C(F)(F)F)n4)c3)s2)CCCC1` [Example 17]: the IC50 was at most 0.1 µM.

Consider `Cc1cnc(Nc2cc(C)cc(-c3cnc(N4CCCNC(=O)C4)s3)c2)nc1` [Example 203], for which the 50% inhibitory concentration (IC50) is at most 0.1 µM.

With `OCCC1CCCN(c2ncc(-c3cccc(Nc4nccc(C(F)(F)F)n4)c3)s2)C1` (stereo not shown) [Example 142], the IC50 is at most 0.1 µM.

On to `Cc1cc(Nc2nccc(C(F)(F)F)n2)cc(-c2cnc(NCCc3cccs3)s2)c1` [Example 108], for which the IC50 lay in the range of 0.1 to 1 µM.

For the compound `CN(Cc1ccccc1)c1ncc(-c2cccc(Nc3nccc(C(F)(F)F)n3)c2)s1` [Example 48], the IC50 is 0.1 to 1 µM.

`CCCSc1ccnc(Nc2cc(C)cc(-c3cnc(N4CCCNC(=O)C4)s3)c2)n1` [Example 220]: the IC50 is at most 0.1 µM.

For `CN1CCC(CNc2ncc(-c3cccc(Nc4nccc(C(F)(F)F)n4)c3)s2)C1` (stereo not shown) [Example 53], the IC50 was at most 0.1 µM.

Regarding `Cc1cc(Nc2ncc(F)c(OC3CCOC3)n2)cc(-c2cnc(N3CCCNC(=O)C3)s2)c1` (stereo not shown) [Example 216, 4-[5-(3-{[5-fluoro-4-(tetrahydrofuran-3-yloxy)pyrimidin-2-yl]amino}-5-methylphenyl)-1,3-thiazol-2-yl]-1,4-diazepan-2-one], the IC50 fell in the range of 0.1 to 1 µM.

Turning to `Cc1cc(Nc2nccc(SC(C)C)n2)cc(-c2cnc(N3CCCNC(=O)C3)s2)c1` [Example 219], the IC50 was at most 0.1 µM.

Regarding `FC(F)(F)c1ccnc(Nc2cccc(-c3cnc(NCc4cncnc4)s3)c2)n1` [Example 31], the concentration for half-maximal inhibition (IC50) was at most 0.1 µM.

Regarding `OC1CCCN(c2ncc(-c3cccc(Nc4nccc(C(F)(F)F)n4)c3)s2)C1` (stereo not shown) [Example 131], the IC50 is at most 0.1 µM.

`Fc1c(CNc2ncc(-c3cccc(Nc4nccc(C(F)(F)F)n4)c3)s2)cccc1C(F)(F)F` [Example 64]: the IC50 is 0.1 to 1 µM.

In the case of `CCC(CO)Nc1ncc(-c2cccc(Nc3nccc(C(F)(F)F)n3)c2)s1` (stereo not shown) [Example 10], the IC50 was at most 0.1 µM.

As for `OCCN(c1ncc(-c2cccc(Nc3nccc(C(F)(F)F)n3)c2)s1)C1CCCC1` [Example 49], the half-maximal inhibitory concentration (IC50) was 0.1 to 1 µM.

As to `Cc1cc(Nc2nccc(C#N)n2)cc(-c2cnc(N3CCCNC(=O)C3)s2)c1` [Example 204], the 50% inhibitory concentration (IC50) was at most 0.1 µM.

`CCCN(CCO)c1ncc(-c2cccc(Nc3nccc(C(F)(F)F)n3)c2)s1` [Example 52]: the half-inhibitory concentration (IC50) was at most 0.1 µM.

With `CN(CC(O)c1ccccc1)c1ncc(-c2cccc(Nc3nccc(C(F)(F)F)n3)c2)s1` (stereo not shown) [Example 7], the IC50 was at most 0.1 µM.

As to `CCNC(=O)Nc1cc(Nc2nccc(C(F)(F)F)n2)cc(-c2cnc(NCCO)s2)c1` [Example 188], the 50% inhibitory concentration (IC50) was at most 0.1 µM.

Regarding `Cc1cc(Nc2nccc(C(F)(F)F)n2)cc(-c2cnc(NCCc3ccncc3)s2)c1` [Example 118], the IC50 is at most 0.1 µM.

For the compound `Cc1cc(Nc2nccc(C(F)(F)F)n2)cc(-c2cnc(N3CCC(c4ccc(S(C)(=O)=O)cc4)CC3)s2)c1` [Example 146], the IC50 was 1 to 10 µM.

On to `FC(F)(F)c1ccnc(Nc2cccc(-c3cnc(-n4ccnc4)s3)c2)n1` [Example 178], for which the 50% inhibitory concentration (IC50) is at most 0.1 µM.

With `C[C@@H](Nc1ncc(-c2cccc(Nc3nccc(C(F)(F)F)n3)c2)s1)C1CCCCC1` [Example 65], the IC50 fell in the range of 1 to 10 µM.
